Data set [1] in a line: Equilibrium saturated solubility in HFA-152a without cosolvent. It counts as physicochemical. To be noted: organic solvent or mixture, thermodynamic from solid, no cosolvent. How it is done:
In this Example, the equilibrium saturated solubility of Δ-9-THC and CBD individually in HFA-152a. was measured.
[…]. Each solution was covered with aluminum foil to prevent UV light from reaching the drug. A first set of solutions was then shaken at room temperature for 4 days. A second set of solutions was stored at 5° C. and manually shaken several times per day. After 4 days, each solution was filtered to remove undissolved CBD and/or Δ-9-THC, and the concentration of each cannabinoid was measured. Formulations were assessed for solubility at room temperature and at 5° C.

The nature of data set [2]: Equilibrium saturated solubility in HFA-227 (comparative). Particulars: organic solvent or mixture, thermodynamic from solid, room temperature. It counts as physicochemical. How it is done:
(§1) In this Example, the equilibrium saturated solubility of CBD or Δ-9-THC individually in HFA-227 and HFA-134a was measured.
(§2) […]. Each solution was shaken at room temperature for 4 days, after which each solution was filtered to remove undissolved CBD and/or Δ-9-THC, and the concentration of each cannabinoid was measured. The equilibrium saturated solubility of each cannabinoid in each propellant was measured at room temperature.

The nature of data set [3]: Equilibrium saturated solubility in HFA-134a (comparative). The data set is classed as physicochemical. Particulars: room temperature. How it is done: as §1, §2
For data set [4] the following is noted: for solubility at 14 days: organic solvent or mixture; for visual solubility: HFA-152a, after 14 days, ambient conditions or 5° C.

≈ marks a conversion by molar mass, not a printed value. Like-named read-outs stand apart in the source and are kept apart here.

These results are taken from US20260241119A1, “METERED DOSE INHALERS AND SOLUTIONS INCLUDING CANNABINOIDS IN HFA-152A” (Kindeva Drug Delivery L.P., priority 2023, published 2026).

The term solubility denotes how much of the substance goes into solution per volume. As to `C=C(C)[C@@H]1CCC(C)=C[C@H]1c1c(O)cc(CCCCC)cc1O` [CBD, 2-[(1R,6R)-6-Isopropenyl-3-methylcyclohex-2-en-1-yl]-5-pentylbenzene-1,3-diol], the solubility at 4 days in data set [1] (5° C.) was not below 16400 µg/mL; in data set [1] (room temperature), not below 15700 µg/mL; in data set [2], 1800 µg/mL (≈ 5.72 mM). Besides, in data set [3] (4 days), the “equilibrium saturated solubility in HFA-134a” value came out at 2500 µg/mL. For the same compound, in data set [4] (HFA-152a with 1-3% ethanol by weight), the solubility at 14 days is not below 15900 µg/mL. The visual solubility entry is “Soluble” in data set [4] (1% ethanol by weight), “soluble” in data set [4] (2% ethanol by weight) and “soluble” in data set [4] (3% ethanol by weight).

As to `CCCCCc1cc(O)c2c(c1)OC(C)(C)[C@@H]1CCC(C)=C[C@@H]21` [Δ-9-THC, (6aR,10aR)-6,6,9-trimethyl-3-pentyl-6a,7,8,10a-tetrahydro-6H-benzo[c]chromen-1-ol], the solubility at 4 days in data set [1] (5° C.) was not below 21800 µg/mL; in data set [1] (room temperature), not below 24700 µg/mL; in data set [2], 1500 µg/mL (≈ 4.77 mM); in data set [3] (organic solvent or mixture, thermodynamic from solid), 2300 µg/mL (≈ 7.31 mM). Also, in data set [4] (HFA-152a with 4%, […]), the solubility at 14 days is not below 15900 µg/mL. The visual solubility entry in data set [4] (4% ethanol by weight), in data set [4] (5% ethanol by weight) and in data set [4] (6% ethanol by weight) was “Soluble” in each case.
